The subject of the first series is Pieris brassicae. As to the kind of experiment: Biological activity on Pieris brassicae (Lepidoptera). In kind it is in vivo. Particulars: 48 h, 0.01%o, Table 5, read-out: Activity (mortality class), Pieris B. How it is done:
(2) Biological activity on Pieris brassicae (Lepidotera)
Cut-off cauliflower leaves were sprinkled with an aqueous dispersion of the products under examination (see TABLE 5).
After drying, the leaves were infested with 5-day old larvae. The percentage of mortality of the larvae (untreated leaves=0) was determined after 48 hours from treatment.
On to `CC=C(Br)c1nc(OP(=S)(OCC)OCC)n(C)n1` [M 8549], for which the mortality at 0.001 % was 10 to 69%.

As to `CCOP(=S)(OCC)Oc1nc(C(C)=C(Cl)Cl)nn1C` [M 8550], the mortality at 0.001 % is 100%.

Staying with this series, now noted: 48 h, 1%o, Table 5, read-out: Activity (mortality class), Pieris B.
On to `CC=C(Cl)c1nc(OP(=S)(OCC)OCC)n(C)n1` [M 8634], for which the mortality at 0.1 % was 100%.

Regarding `CC=C(Br)c1nc(OP(=S)(OCC)OCC)n(C)n1` [M 8549], the mortality at 0.1 % is 100%.

On to `CCOP(=S)(OCC)Oc1nc(C(C)=C(Cl)Cl)nn1C` [M 8550], for which the mortality at 0.1 % was 100%.

Staying with this series, now noted: 48 h, read-out: Activity (mortality class), Pieris B.
Take `CCOP(=S)(OCC)Oc1nc(C(Cl)=C(Cl)Cl)nn1C` [M 8560]: the mortality at 0.001 % was in the range of 70 to 99% and the mortality at 0.1 % was 100%.

The next series relates to Leptinotarsa decemlineata. The series is described as follows: Biological activity on Leptinotarsa decemlineata (Coleoptera). Particulars: 48 h, 0.05%o, Table 5, read-out: Activity (mortality class), Leptinotarsa D. In kind it is in vivo. How it is done: (3) Biological activity on Leptinotarsa decemlineata (Coleoptera)
Small potato plants grown in pots were infested with 4-day old larvae, and were then sprinkled with an aqueous dispersion of the products under examination (see Tables 4 and 5).
The mortality percentage (untreated small plants=0) was determined after 48 hours from treatment.
`CC=C(Cl)c1nc(OP(=S)(OCC)OCC)n(C)n1` [M 8634]: the mortality at 0.005 % stood at 100%.

With `CC=C(Br)c1nc(OP(=S)(OCC)OCC)n(C)n1` [M 8549], the mortality at 0.005 % was 100%.

Turning to `CCOP(=S)(OCC)Oc1nc(C(C)=C(Cl)Cl)nn1C` [M 8550], the mortality at 0.005 % was found to be 100%.

Still in this series, the particulars now being: 48 h, 1%o, Table 5, read-out: Activity (mortality class), Leptinotarsa D.
Regarding `CC=C(Cl)c1nc(OP(=S)(OCC)OCC)n(C)n1` [M 8634], the mortality at 0.1 % worked out at 100%.

As for `CC=C(Br)c1nc(OP(=S)(OCC)OCC)n(C)n1` [M 8549], the mortality at 0.1 % worked out at 100%.

As to `CCOP(=S)(OCC)Oc1nc(C(C)=C(Cl)Cl)nn1C` [M 8550], the mortality at 0.1 % came to 100%.

The series is the same for the next values; noted with them: 48 h, read-out: Activity (mortality class), Leptinotarsa D.
Take `CCOP(=S)(OCC)Oc1nc(C(Cl)=C(Cl)Cl)nn1C` [M 8560]: the mortality at 0.005 % is 100% and the mortality at 0.1 % was determined as 100%.

Another series concerns Culex pipiens. The series is described as follows: Biological activity on Culex pipiens larvae (Diptera). In kind it is in vivo. Particulars: 24 h, 0.02 ppm, Table 5, read-out: Activity (mortality class), Culex P. (larvae). How it is done:
(4) Biological activity on Culex pipiens (Diptera)
Into glasses containing an aqueous dispersion of the products under examination (see Tables 4 and 5) there were introduced mosquito larvae of third and fourth age.
The mortality percentage of the larvae (glasses containing pure water=0) was determined after 24 hours from treatment.
As to `CCOP(=S)(OCC)Oc1nc(C(Cl)=C(Cl)Cl)nn1C` [M 8560], the mortality at 0.02 ppm was in the range of 10 to 69%.

With `CCOP(=S)(OCC)Oc1nc(C(C)=C(Cl)Cl)nn1C` [M 8550], the mortality at 0.02 ppm fell in the range of 70 to 99%.

The series is the same for the next values; noted with them: 24 h, 2 ppm, Table 5, read-out: Activity (mortality class), Culex P. (larvae).
As to `CC=C(Cl)c1nc(OP(=S)(OCC)OCC)n(C)n1` [M 8634], the mortality at 2 ppm is 100%.

With `CCOP(=S)(OCC)Oc1nc(C(Cl)=C(Cl)Cl)nn1C` [M 8560], the mortality at 2 ppm came out at 100%.

As to `CC=C(Br)c1nc(OP(=S)(OCC)OCC)n(C)n1` [M 8549], the mortality at 2 ppm worked out at 100%.

`CCOP(=S)(OCC)Oc1nc(C(C)=C(Cl)Cl)nn1C` [M 8550]: the mortality at 2 ppm came out at 100%.

For another series, the system named is Tetranychus urticae. The series is described as follows: Biological activity on adults of Tetranychus urticae (Acari). Particulars: 24 h, 0.01%o, Table 5, read-out: Activity (mortality class), Tetranychus U. (adults). The format is in vivo. How it is done:
(5) Biological activity on adults of Tetranychus urticae (Acari)
Discs of bean leaves were infested with adult acari and then sprinkled with an aqueous dispersion of the products under examination (see Tables 4 and 5).
The mortality percentage was determined after 24 hours from treatment (untreated leaf discs, mortality=0).
Consider `CC=C(Cl)c1nc(OP(=S)(OCC)OCC)n(C)n1` [M 8634], for which the mortality at 0.001 % was in the range of 10 to 69%.

As for `CCOP(=S)(OCC)Oc1nc(C(Cl)=C(Cl)Cl)nn1C` [M 8560], the mortality at 0.001 % was found to be 100%.

Regarding `CC=C(Br)c1nc(OP(=S)(OCC)OCC)n(C)n1` [M 8549], the mortality at 0.001 % was 10 to 69%.

With `CCOP(=S)(OCC)Oc1nc(C(C)=C(Cl)Cl)nn1C` [M 8550], the mortality at 0.001 % lay in the range of 10 to 69%.

The series is the same for the next values; noted with them: 24 h, 1%o, Table 5, read-out: Activity (mortality class), Tetranychus U. (adults).
In the case of `CC=C(Cl)c1nc(OP(=S)(OCC)OCC)n(C)n1` [M 8634], the mortality at 0.1 % was 100%.

On to `CC=C(Br)c1nc(OP(=S)(OCC)OCC)n(C)n1` [M 8549], for which the mortality at 0.1 % is 100%.

For `CCOP(=S)(OCC)Oc1nc(C(C)=C(Cl)Cl)nn1C` [M 8550], the mortality at 0.1 % was found to be 100%.

The series is the same for the next values; noted with them: 24 h, read-out: Activity (mortality class), Tetranychus U. (adults).
On to `CCOP(=S)(OCC)Oc1nc(C(Cl)=C(Cl)Cl)nn1C` [M 8560], for which the mortality at 0.1 % was 100%.

The next series relates to Spodoptera littoralis. The series is described as follows: Biological activity on Spodoptera littoralis (Lepidoptera). The format is in vivo. Particulars: 48 h, 0.05%o, Table 5, read-out: Activity (mortality class), Spodoptera L. On the procedure: (7) Biological activity on Spodoptera littoralis (Lepidoptera)
Cut tobacco leaves were sprinkled with an aqueous dispersion of the products under examination (see Tables 4 and 5).
After drying, the leaves were infested with 5-day old larvae.
The percentage of mortality of the larvae was determined after 48 hours from treatment (untreated leaves, mortality=0).
Take `CC=C(Cl)c1nc(OP(=S)(OCC)OCC)n(C)n1` [M 8634]: the mortality at 0.005 % was 10 to 69%.

Staying with this series, now noted: 48 h, 1%o, Table 5, read-out: Activity (mortality class), Spodoptera L.
As to `CC=C(Cl)c1nc(OP(=S)(OCC)OCC)n(C)n1` [M 8634], the mortality at 0.1 % turned out to be 100%.

Consider `CC=C(Br)c1nc(OP(=S)(OCC)OCC)n(C)n1` [M 8549], for which the mortality at 0.1 % came out at 100%.

`CCOP(=S)(OCC)Oc1nc(C(C)=C(Cl)Cl)nn1C` [M 8550]: the mortality at 0.1 % came to 100%.

The same series, now with this note: 48 h, read-out: Activity (mortality class), Spodoptera L.
Regarding `CCOP(=S)(OCC)Oc1nc(C(Cl)=C(Cl)Cl)nn1C` [M 8560], the mortality at 0.005 % was 70 to 99% and the mortality at 0.1 % turned out to be 100%.

In another series the test system is Blatta orientalis. The series is described as follows: Biological activity on Blatta orientalis (Ortoptera). In kind it is in vivo. Particulars: Blatta orientalis, 48 h, read-out: Activity (mortality class), Blatta O. How it is done: (10) Biological activity on Blatta orientalis (Ortoptera)
The bottom and walls of glass crystallizers were treated uniformly with an acetonic solution of the products under examination (see Tables 4 and 5). After evaporation of the solvent, into each crystallizer were introduced ten 80-100 days old neanides. The crystallizers were then closed with a metal net cover. After 24 hours from the start of the treatment, the insects were transferred to similar untreated crystallizers, and there were appropriately nourished in conventional manner.
The percentage of mortality (untreated insects=0) was determined after 48 hours from the start of the treatment.
For the compound `CCOP(=S)(OCC)Oc1nc(C(Cl)=C(Cl)Cl)nn1C` [M 8560], the mortality at 1 g/m2 is 100%.

The series is the same for the next values; noted with them: Blatta orientalis, 48 h; 0,01 g/m^2; Table 5; read-out: Activity (mortality class), Blatta O.
`CC=C(Cl)c1nc(OP(=S)(OCC)OCC)n(C)n1` [M 8634]: the mortality at 0.01 g/m2 fell in the range of 10 to 69%.

In the case of `CCOP(=S)(OCC)Oc1nc(C(C)=C(Cl)Cl)nn1C` [M 8550], the mortality at 0.01 g/m2 lay within 10 to 69%.

The same series, now with this note: Blatta orientalis, 48 h; 1 g/m^2; Table 5; read-out: Activity (mortality class), Blatta O.
Take `CC=C(Cl)c1nc(OP(=S)(OCC)OCC)n(C)n1` [M 8634]: the mortality at 1 g/m2 worked out at 100%.

In the case of `CC=C(Br)c1nc(OP(=S)(OCC)OCC)n(C)n1` [M 8549], the mortality at 1 g/m2 was 100%.

Take `CCOP(=S)(OCC)Oc1nc(C(C)=C(Cl)Cl)nn1C` [M 8550]: the mortality at 1 g/m2 came out at 100%.

System in a further series: not listed separately
As to the kind of experiment: Toxicity on albino rats by oral administration. Particulars: rat, in vivo.
In turn, `CC=C(Cl)c1nc(OP(=S)(OCC)OCC)n(C)n1` [M 8634] returned an LD50 of 1400 mg/kg.

`CCOP(=S)(OCC)Oc1nc(Cl)n(C(C)C)n1` [Miral®, Diethyl-(1-isopropyl-5-chloro-1,2,4-triazole-3-yl) phosphoro-thionate, reference compound] came in with an LD50 of 60 mg/kg.

`CCOP(=S)(OCC)Oc1nc(C(Cl)=C(Cl)Cl)nn1C` [M 8560] returned an LD50 of 1200 mg/kg.

`CC=C(Br)c1nc(OP(=S)(OCC)OCC)n(C)n1` [M 8549] returned an LD50 of 1000 mg/kg.

In turn, `CCOP(=S)(OCC)Oc1nc(C(C)=C(Cl)Cl)nn1C` [M 8550] gave an LD50 of 1700 mg/kg.

The values are drawn from patent publication US4400517A, “Phosphoric esters derived from 1,2,4-triazole having an insecticidal, nematocidal and acaricidal action, and their preparation” (priority 1976, dated 1983).
